One data set relates to E14 cells. Kind of data set: Growth under serum free condition (N2B27 medium). It counts as cell-based, mouse. As to the method:
Growth Under Serum Free Condition. E14 cells were maintained in serum-free N2B27 medium containing DMEM/F12 (Invitrogen), Neurobasal media (Invitrogen), B27 supplement (Invitrogen), N2 supplement (Invitrogen), BSA fraction V (Invitrogen), 2-mercaptoethanol (Sigma) and LIF/BMP4 (R&D Systems, Minneapolis, Minn.) with change of medium on alternate days and passed in every 2-4 days. For experiments with Gö6983, ˜5×10^4 E14 cells were plated on each well of a gelatin-coated 6-well plate having N2B27 medium without LIF/BMP4 and with or without 5 μM Gö6983 and cultured for 3-4 days before passing. Cells were analyzed for expression of different markers (by RT-PCR or immunofluorescence study). For experiments at clonal density, initially, E14 cells were cultured at high density in N2B27 medium with Gö6983 alone for 4 passages, then ˜200 cells were plated in each wells of a 96-well plate with Gö6983 in N2B27 and cultured for 7 more days. After 7 days, colonies were analyzed for Oct4 staining.

For the next data set, the system named is RelA and LGL1/2. Put plainly: Phosphorylation of PKC ζ target proteins in mESCs. Type of data set: cell-based, mouse. How it is done:
Western Blot Analysis. Whole cell lysates were prepared in SDS-gel loading buffer and resolved by 10% PAGE. The antibodies used for this study included β-actin Clone AC-15 from Sigma; p-STAT3 (Tyr705), p-p44/42 MAPK (tyr202/tyr204), p44/42 MAPK, GSK3β, Phospho Akt (Ser473), Akt, p-NFκβ p65 (Ser536), c-Myc, p-c-Myc (Thr58/Ser62), p-p90RSK (Thr359/Ser363), RSK1, Suz12 (D39F6), and Ezh2 (AC22) from Cell Signaling Technology; STAT3 (C-20), Oct-4 (C-10), Nanog (M-149), PKC α (C-20), PKC βI (C-16), PKC βII (C-18), PKC γ (C-19), PKC δ (C-20), PKC ζ (c-20), p-PKC ζ (Thr 410)-R, p-NFκβ p65 (ser311), and RelA (p65) from Santa Cruz Biotechnology; p-LGL1/LGL2 (S650/S654), SSEA4and H3K4Me3 from Abcam; LGL2 (M06), clone 4G2 from Abnova; β-Catenin from BD Transduction Laboratories, and H3K27Me3 and H3K9Me3 from Millipore.

The next data set relates to Akt. Put plainly: Akt phosphorylation in mESCs. Type of data set: cell-based, mouse. How it is done:
(§1) E14 ES Cell Cultures. Cells were grown in ES-IMDM media (Lonza, Walkersville, Md.) in a feeder-free condition. ES-IMDM was supplemented with 15% serum, 10^5 U/100 ml of LIF (ESGRO, Millipore, Calif.) and 0.0124% monothioglycerol (MTG; Sigma Aldrich). Cells were grown for 3-5 days with change of medium every day. For inducing differentiation in monolayer culture and to determine the effect of Gö6983 in preventing differentiation, E14 cells were cultured on gelatin-coated plastics for 8 days without LIF. Details of experiments performed at clonal-density are described herein. To maintain E14 cells with Gö6983, serum supplemented ES-IMDM was used in the presence of 5 μM Gö6983 and was passed after every 3-5 days. For all assays involving elucidation of different signaling mechanism responsible for maintenance of pluripotency, cells from a ˜70% confluent ES culture plate were washed two times with 1× phosphate-buffered saline (PBS), trypsinized and plated on a 6-well tissue culture plate and treated with or without LIF or Gö6983 or different inhibitors for ˜10 hours followed by preparation of protein lysates and RNA. The PKCζ knocked-down E14 cells that were generated in this study were maintained in serum supplemented ES-IMDM on gelatin-coated plates in the absence of Gö6983 or LIF or any other inhibitor and passed after 3-5 days. […]

The next data set has as its system ERK1/2. Put plainly: ERK1/2 phosphorylation in ES cells. It counts as cell-based, mouse. The conditions noted are these: Gö6983 alone. As to the method:
as §1

For data set [1], the system named is Oct4 and Nanog promoter regions. Put plainly: DNA methylation analysis (bisulfite sequencing, MSP). Type of data set: cell-based, mouse. The settings on record: E14 cells, 5 days on collagen-IV. The text has this: DNA Methylation Analysis. One μg of genomic DNA was subjected to bisulfite treatment using CPGENOME Fast DNA Modification Kit (Chemicon Int.). For bisulfite sequencing, the modified DNA was amplified by nested polymerase chain reaction (PCR) using two forward (F) primers and one reverse (R) primer: Oct4 (F1, 5′-GTTGTTTTGTTTTGGTTTTGGATAT-3′, SEQ ID NO:57; F2, 5′-ATGGGTTGAAATATTGGGTTTATTTA-3′, SEQ ID N:58; and R, 5′-CCACCCTCTAACCTTAACCTCTAAC-3′, SEQ ID NO:59) and Nanog (F1, 5′-GAGGATGTTTTTTAAGTTTTTTTT-3′, SEQ ID NO:60; F2, 5′-AATGTTTATGGTGGATTTTGTAGGT-3′, SEQ ID NO:;61; and R, 5′-CCCACACTCATATCAATATAATAAC-3′, SEQ ID NO:62). The resulting PCR product was gel purified, subcloned into pGEM-T vector (Promega) and sequenced using M13R primer. Following primers were used for MSP: Oct4, (F) 5′-GGTTTTAGAAATAATTGGTATACGA-3′ (SEQ ID NO:63), and (R) 5′-CTATTAACACTACACCCTCTCGAC-3′ (SEQ ID NO:64); and Nanog, (F) 5′-ATTTGTGAGTATAAGGATTGATCGG-3′ (SEQ ID NO:65), and (R) 5′-TTTCTTTAAAATAAAATTTCACGTA-3′ (SEQ ID NO:66). PCR products were analyzed on agarose gel.

A further data set has as its target PKC μ (Homo sapiens, UniProt Q15139). The conditions noted are these: higher concentrations; cited from earlier work.

SMILES strings stand for the structures.

Chain of PKC μ (Q15139 whole entry): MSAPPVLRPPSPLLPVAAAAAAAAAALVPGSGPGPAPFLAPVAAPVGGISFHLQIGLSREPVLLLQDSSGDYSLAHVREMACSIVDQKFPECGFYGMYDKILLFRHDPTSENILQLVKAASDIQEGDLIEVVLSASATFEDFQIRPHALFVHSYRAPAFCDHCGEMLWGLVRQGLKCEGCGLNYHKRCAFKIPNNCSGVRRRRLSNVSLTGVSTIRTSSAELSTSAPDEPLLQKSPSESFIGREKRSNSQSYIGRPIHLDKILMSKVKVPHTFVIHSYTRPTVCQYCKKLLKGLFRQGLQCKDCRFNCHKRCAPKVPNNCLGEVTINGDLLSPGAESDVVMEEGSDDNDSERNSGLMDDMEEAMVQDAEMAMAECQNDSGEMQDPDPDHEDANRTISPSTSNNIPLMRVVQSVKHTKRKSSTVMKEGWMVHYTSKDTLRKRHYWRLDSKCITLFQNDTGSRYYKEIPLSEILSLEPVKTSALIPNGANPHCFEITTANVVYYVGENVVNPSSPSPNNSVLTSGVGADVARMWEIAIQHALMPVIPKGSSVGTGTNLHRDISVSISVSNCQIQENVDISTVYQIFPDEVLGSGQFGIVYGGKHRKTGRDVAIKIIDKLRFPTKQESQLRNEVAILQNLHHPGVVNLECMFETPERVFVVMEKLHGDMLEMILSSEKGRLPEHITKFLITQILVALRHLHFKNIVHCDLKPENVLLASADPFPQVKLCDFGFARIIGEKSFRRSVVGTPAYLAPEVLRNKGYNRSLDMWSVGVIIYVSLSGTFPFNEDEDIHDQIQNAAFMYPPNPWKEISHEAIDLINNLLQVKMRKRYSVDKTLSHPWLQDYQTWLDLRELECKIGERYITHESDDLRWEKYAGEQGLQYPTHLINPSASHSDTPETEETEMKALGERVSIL

Consider `COc1ccc2c(c1)c(C1=C(c3c[nH]c4ccccc34)C(=O)NC1=O)cn2CCCN(C)C` [Gö6983, 3-[1-[3-(dimethylamino)propyl]5-methoxy-1H-indol-3-yl]-4-(1H-indol-3-yl)-1H-pyrrole-2,5-dione], for which the “cell survival when propagated at clonal density in N2B27 medium” value with E14 cells (N2B27 medium plus Gö6983, clonal density) is “poor”. In addition, the “induction of inhibitor-of-differentiation genes” value with E14 cells (N2B27 without serum, LIF, BMP4, FIG. 1C) is on record as “not associated with the induction of inhibitor-of-differentiation genes”. For the same compound, in the data set on E14 cells (without serum, LIF and BMP4), the “undifferentiated state in N2B27 medium” value is “could be maintained in an undifferentiated state”. The “phosphorylation of RelA and LGL1/2” value in the data set on RelA and LGL1/2 is “impaired”. Also, the Akt phosphorylation entry with Akt is “not associated with Akt phosphorylation”. Also, the ERK1/2 phosphorylation result in the data set with ERK1/2 was “did not inhibit”. Besides, in data set [1], the “DNA methylation of promoter regions of Oct4 and Nanog” value is “remained largely unmethylated”. Moreover, the “concentration that inhibits isoform PKC μ” value on PKC μ was more than 20 µM.

Source of the values: patent US8193235B2, “Compositions and methods for establishing and maintaining stem cells in an undifferentiated state” (University of Kansas, priority 2009, dated 2012).
